Test system: Math1-estrogen receptor (ER) fusion protein
Assay: Tamoxifen-inducible Math1-estrogen receptor (ER) fusion construct in transfected cells
Format: cell-based
Details: addition of tamoxifen to the transfected cells
Text: This Example describes a system in which administration of tamoxifen, a […], induces expression of Math1. A Math1-estrogen receptor (ER) fusion protein, where the ER has been mutated so that it selectively binds to tamoxifen rather than estrogen, is constitutively expressed. In the absence of tamoxifen, the Math1-ER construct remains quiescent within the cytosol where it is inactivated by heat shock proteins. […] The sequence of Math1 is given above.

CC/C(=C(\c1ccccc1)c1ccc(OCCN(C)C)cc1)c1ccccc1 [tamoxifen]
localization of the Math1-ER construct to the nucleus: dose-dependent localization of the Math1-ER construct to the nucleus

— patent publication US20190233796A1, “Generation of Inner Ear Cells” (Massachusetts Eye & Ear Infirmary, priority 2006, published 2019)
